In US12336991B2, “Factor XIIA inhibitors” (UNIVERSITY OF LEEDS, priority 2018, dated 2025):
pKi: −log10 of the molar value.

Key:
Assay type in all cases: biochemical
[1] = target: T1, FXIIa (Homo sapiens, UniProt P00748); assay: Determination of Factor XIIa inhibition, chromogenic substrate S-2302 assay; conditions: human FXIIa alpha
T1 sequence (P00748 373-615 limits assumed): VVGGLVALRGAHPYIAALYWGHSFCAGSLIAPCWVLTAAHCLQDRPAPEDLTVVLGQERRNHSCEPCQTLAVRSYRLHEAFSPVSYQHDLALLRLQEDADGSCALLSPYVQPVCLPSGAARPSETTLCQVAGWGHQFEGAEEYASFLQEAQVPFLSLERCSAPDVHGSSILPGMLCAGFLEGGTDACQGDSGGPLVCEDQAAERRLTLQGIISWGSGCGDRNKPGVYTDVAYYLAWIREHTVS
T1 sequence (P00748 20-372 partner limits assumed): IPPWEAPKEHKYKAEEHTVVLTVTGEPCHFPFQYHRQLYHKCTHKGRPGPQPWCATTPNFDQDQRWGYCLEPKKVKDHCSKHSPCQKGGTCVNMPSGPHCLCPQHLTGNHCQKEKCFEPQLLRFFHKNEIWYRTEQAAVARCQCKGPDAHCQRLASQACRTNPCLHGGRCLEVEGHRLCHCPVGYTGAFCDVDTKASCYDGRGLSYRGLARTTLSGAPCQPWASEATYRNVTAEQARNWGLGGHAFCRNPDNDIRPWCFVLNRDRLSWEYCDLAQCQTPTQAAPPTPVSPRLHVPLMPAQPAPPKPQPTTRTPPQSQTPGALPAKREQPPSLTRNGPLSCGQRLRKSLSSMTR
How it was run: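 FXIIa (10 nM) preincubated with compound 10 min at 37° C. in 50 mM Tris, 137 mM NaCl pH 7.4, 5% DMSO, top concentration 500 μM, then S-2302 added ([…]). Absorbance at 405 nm read kinetically for 3 h; IC50 from initial rates, converted to Ki by Cheng-Prusoff.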

[2] = target: FXa (Homo sapiens, UniProt P00742); assay: Determination of selectivity: FXa inhibition, chromogenic substrate S2765 assay; conditions: fold selectivity for FXIIa over FXa
Chain of FXa (P00742 235-488 limits assumed): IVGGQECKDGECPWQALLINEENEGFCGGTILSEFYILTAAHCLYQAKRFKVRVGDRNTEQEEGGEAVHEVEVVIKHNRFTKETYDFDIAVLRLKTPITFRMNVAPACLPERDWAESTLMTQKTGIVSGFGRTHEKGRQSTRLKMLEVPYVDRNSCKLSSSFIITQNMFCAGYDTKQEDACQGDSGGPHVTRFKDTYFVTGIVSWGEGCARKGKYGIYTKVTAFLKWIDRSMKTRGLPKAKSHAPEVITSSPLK
Chain of FXa (P00742 41-179 partner limits assumed): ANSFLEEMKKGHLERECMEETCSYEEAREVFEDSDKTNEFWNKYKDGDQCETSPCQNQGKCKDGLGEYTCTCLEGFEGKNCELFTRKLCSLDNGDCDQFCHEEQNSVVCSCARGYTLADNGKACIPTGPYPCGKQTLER
How it was run: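 Human FXa (5 nM) preincubated with compound (top 500 μM, 5% DMSO) 10 min at 37 °C in 50 mM Tris, 137 mM NaCl pH 7.4, then S2765 ([…]) added; A405 kinetics over 3 h at 37 °C. IC50 from initial rates, converted to Ki via Cheng-Prusoff.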

[3] = target: T2, thrombin (Homo sapiens, UniProt P00734); assay: Determination of selectivity: thrombin inhibition, chromogenic substrate GPR assay; conditions: fold selectivity for FXIIa over thrombin
T2 construct: FXa (5 nM) and thrombin (5 nM)
How it was run: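 Thrombin (5 nM) preincubated with compound 10 min at 37 °C in 50 mM Tris, 137 mM NaCl, pH 7.4, 5% DMSO, then GPR substrate ([…]) added. Absorbance at 405 nm read kinetically for 3 h; IC50 from initial rates, converted to Ki via Ki=IC50/(1+[S]/Km).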

Row | Compound | pKi [1] | FXa (human)/FXIIa alpha (human) [2] | Thrombin (human)/FXIIa alpha (human) [3]
1 | COc1ccc(C[C@@H]2C[C@@H](C(=O)NCc3ccc4c(c3)nnn4C)N(C(=O)[C@H](N)CC(O)c3ccccc3)C2)cc1 (stereo partly drawn) [Example M05379] | 5.70 to 6.70 | ∘∘∘ | +++ (fold selectivity values greater than 100)
2 | COC(=O)N[C@H]1C[C@@H](C(=O)NCc2ccc3c(c2)nnn3C)N(C(=O)[C@H](N)CCc2ccccc2)C1 [Example M05207] | < 5.70 | ∘∘ | ++ (fold selectivity value of 10 to 100)
3 | CN(C1CCCCC1)C1C[C@@H](C(=O)NCc2ccc3c(c2)nnn3C)N(C(=O)[C@H](N)CCc2ccccc2)C1 (stereo partly drawn) [Example M05242] | < 5.70 | ∘∘ | ++ (fold selectivity value of 10 to 100)
4 | COc1ccc(C[C@@H]2C[C@@H](C(=O)NCc3ccc4c(c3)nnn4C)N(C(=O)[C@H]3CC(c4cnccn4)CN3)C2)cc1 (stereo partly drawn) [Example M05459] | 5.70 to 6.70 | ∘∘∘ | +++ (fold selectivity values greater than 100)
5 | Cn1nnc2cc(CNC(=O)[C@@H]3CC(Cc4ccnc(C(F)(F)F)c4)CN3C(=O)[C@H](N)CCC(=O)N3CCCC3)ccc21 (stereo partly drawn) [Example M05303] | 5.70 to 6.70 | ∘∘∘ | ++ (fold selectivity value of 10 to 100)
6 | Cn1nnc2cc(CNC(=O)[C@@H]3C[C@@H](Cc4cccc5c4CCO5)CN3C(=O)[C@H]3C[C@@H](c4ccccc4)CN3)ccc21 [Example M05371] | < 5.70 | ∘∘ | ++ (fold selectivity value of 10 to 100)
7 | Cn1nnc2cc(CNC(=O)[C@@H]3C[C@@H](Cc4ccc(F)c(F)c4)CN3C(=O)C3C[C@@H](c4ccccc4)CN3)ccc21 (stereo partly drawn) [Example M05325] | < 5.70 | ∘∘ | ++ (fold selectivity value of 10 to 100)
8 | COc1ccc(C[C@@H]2C[C@@H](C(=O)NCc3ccc4c(c3)nnn4C)N(C(=O)[C@H]3C[C@@H](C(=O)N4CCCC4)CCN3)C2)cc1 [Example M05490] | > 6.70 | ∘∘∘ | +++ (fold selectivity values greater than 100)
9 | COc1cncc(CC2C[C@@H](C(=O)NCc3ccc4c(c3)nnn4C)N(C(=O)[C@H](N)CCC(=O)N3CCCC3)C2)c1 (stereo partly drawn) [Example M05304] | 5.70 to 6.70 | ∘∘∘ | +++ (fold selectivity values greater than 100)
10 | COc1ccc(CC2C[C@@H](C(=O)NCc3ccc4c(c3)nnn4C)N(C(=O)[C@H]3C[C@@H](c4ccccc4)CN3)C2)cc1OC (stereo partly drawn) [Example M05348] | 5.70 to 6.70 | ∘∘∘ | +++ (fold selectivity values greater than 100)
11 | Cn1cc(-c2ccc(C[C@@H]3C[C@@H](C(=O)NCc4ccc5c(c4)nnn5C)N(C(=O)[C@H](N)CCC(=O)N4CCCC4)C3)cc2)cn1 [Example M05341] | 5.70 to 6.70 | ∘∘∘ | +++ (fold selectivity values greater than 100)
12 | CN(C)[C@H](CCC(=O)N1CCCC1)C(=O)N1C[C@H](Cc2cccnc2)C[C@H]1C(=O)NCc1ccc2c(cnn2C)c1 [Example M05223] | 5.70 to 6.70 | ∘∘∘ | +++ (fold selectivity values greater than 100)
13 | Cn1nnc2cc(CNC(=O)[C@@H]3C[C@H](NCCCc4ccccc4)CN3C(=O)[C@H](N)CCc3ccccc3)ccc21 [Example M05206] | < 5.70 | ∘∘ | ++ (fold selectivity value of 10 to 100)
14 | Cn1nnc2cc(CNC(=O)[C@@H]3C[C@H](c4ccccc4Oc4ccccc4)CN3C(=O)[C@H](N)CCc3ccccc3)ccc21 [Example M05174] | < 5.70 | ∘∘ | ++ (fold selectivity value of 10 to 100)
15 | COc1ccc(C[C@@H]2C[C@@H](C(=O)NCc3ccc4c(c3)nnn4C)N(C(=O)C3NCCc4cc(OC)ccc43)C2)cc1 (stereo partly drawn) [Example M05441] | > 6.70 | ∘∘∘ | +++ (fold selectivity values greater than 100)
16 | COc1ccc(C[C@@H]2C[C@@H](C(=O)NCc3ccc4c(c3)nnn4C)N(C(=O)[C@H]3C[C@@H](c4ccccc4)CCN3)C2)cc1 [Example M05374] | < 5.70 | ∘∘ | ++ (fold selectivity value of 10 to 100)

Now from value to compound, other results behind:

Row | pKi [1] | FXa (human)/FXIIa alpha (human) [2] | Compound | Thrombin (human)/FXIIa alpha (human) [3]
17 | > 6.70 | ∘∘∘ | Cn1nnc2cc(CNC(=O)[C@@H]3C[C@@H](Cc4cccc(Cl)c4)CN3C(=O)[C@H](N)CCC(=O)N3CCCC3)ccc21 [Example M05190] | +++ (fold selectivity values greater than 100)
18 | > 6.70 | ∘∘∘ | COc1ccc(C[C@@H]2C[C@@H](C(=O)NCc3cc4cnccc4o3)N(C(=O)[C@H](N)CCC(=O)N3CCCC3)C2)cc1 [Example M05404] | +++ (fold selectivity values greater than 100)
19 | > 6.70 | ∘∘∘ | Cn1ncc2cc(CNC(=O)[C@@H]3C[C@@H](Cc4ccncc4)CN3C(=O)[C@H](N)CCC(=O)N3CCCC3)ccc21 [Example M05244] | +++ (fold selectivity values greater than 100)
20 | < 5.70 | ∘∘ | N[C@H](CCc1ccccc1)C(=O)N1CCC[C@H]1C(=O)NCc1ccc2nccn2c1 [Example M05021] | + (fold selectivity values less than 10)
21 | < 5.70 | ∘∘ | NCc1ccc(CNC(=O)[C@@H]2CCCN2C(=O)[C@H](N)CCN2CCCCC2)cc1 [Example M00801] | ++ (fold selectivity value of 10 to 100)
22 | > 6.70 | ∘∘∘ | Cn1nnc2cc(CNC(=O)[C@@H]3CC(Cc4ccccc4C#N)CN3C(=O)[C@H](N)CCC(=O)N3CCCC3)ccc21 (stereo partly drawn) [Example M05320] | +++ (fold selectivity values greater than 100)
23 | < 5.70 | ∘∘ | NCc1ccc(CNC(=O)C2CCCN2C(=O)[C@H](N)CCc2cccc(CO)c2)cc1 (stereo partly drawn) [Example M00805] | + (fold selectivity values less than 10)
24 | 5.70 to 6.70 | ∘ | Nc1nccc2cc(CNC(=O)[C@@H]3C[C@H](c4ccccc4)CN3C(=O)[C@H](N)CCC(=O)N3CCCC3)ccc12 [Example M05281] | ++ (fold selectivity value of 10 to 100)
25 | 5.70 to 6.70 | ∘∘∘ | Cn1nnc2cc(CNC(=O)[C@@H]3C[C@@H](CC4CCCC4)CN3C(=O)[C@H](N)CCC(=O)N3CCCC3)ccc21 [Example M05291] | +++ (fold selectivity values greater than 100)
26 | < 5.70 | ∘∘ | NCc1ccc(CNC(=O)[C@@H]2CCCN2C(=O)[C@H](N)CCC(=O)N2CCC3CC32)cc1 (stereo partly drawn) [Example M00929] | + (fold selectivity values less than 10)
27 | 5.70 to 6.70 | ∘∘∘ | Cn1nnc2cc(CNC(=O)[C@@H]3C[C@@H](Cc4cccnc4)CN3C(=O)[C@H](N)CCC(=O)N3CCCC3)ccc21 [Example M05218] | +++ (fold selectivity values greater than 100)
28 | 5.70 to 6.70 | ∘∘∘ | COc1ccc(C[C@@H]2C[C@@H](C(=O)NCc3ccc4c(C)nn(C)c4c3)N(C(=O)[C@H](N)CCC(=O)N3CCCC3)C2)cc1 [Example M05448] | +++ (fold selectivity values greater than 100)
29 | > 6.70 | ∘∘∘ | COc1ccc(C[C@@H]2C[C@@H](C(=O)NCc3cc4cnccc4[nH]3)N(C(=O)[C@H](N)CCC(=O)N3CCCC3)C2)cc1 [Example M00957] | +++ (fold selectivity values greater than 100)
30 | 5.70 to 6.70 | ∘∘∘ | COc1ccc(C[C@@H]2C[C@@H](C(=O)NCc3ccc4c(c3)nnn4C)N(C(=O)[C@H](N)CCC(=O)N3CCNC[C@H]3C)C2)cc1 [Example M05443] | +++ (fold selectivity values greater than 100)
